# Results published in PMC7821884, “BRAF inhibition protects against hearing loss in mice” (Science Advances, 2020).
# How the values were obtained:
# P42 FVB mice [1] = experiment: Cisplatin-induced hearing loss in adult mice (ABR, OHC counts, pERK)
# Experimental: As described in Fig. 4A, baseline auditory brainstem response (ABR) thresholds for P42 FVB mice were established 1 week before experimental procedures. […] Animals were allowed 21 days after cisplatin injection to recover, and final ABR thresholds were recorded.
# Ten milligrams of cisplatin (479306, Sigma-Aldrich) powder was dissolved in 10 ml of sterile saline (0.9% NaCl) at 37°C for 40 to 60 min. Cisplatin was administered to FVB mice at 30 mg/kg via intraperitoneal injection. One day before cisplatin injection, mice received 1 ml of saline by subcutaneous injection. To ameliorate dehydration after cisplatin injection, 1 ml of warm saline was injected twice per day for at least 7 days or until body weight started to recover. The cages of cisplatin-treated mice were placed on the heating pad for at least 7 days or until body weight began to recover. Fresh mush food was daily given for at least 7 days.
# (§1) Compounds were dissolved in a mixture of 10% DMSO, 5% Tween 80 (P1754, Sigma-Aldrich), 40% PEG-E-300 (91462-1KG, Sigma-Aldrich), and 45% 0.9% saline.
# (§2) ABR in mice was measured for left ears as described previously with minor modifications ([13], [34]). In brief, ABR waveforms were recorded in a sound booth (Industrial Acoustic Company) by using subdermal needles positioned in the skull, below the pinna, and at the base of the tail, and the responses were fed into a low-impedance Medusa digital biological amplifier system (RA4L; TDT; 20-dB gain). At each frequency, the stimulus intensity was reduced from 90 to 0 dB in 10-dB steps to determine the threshold decibel SPL when the electrical response was just above the noise floor. ABR waveforms were averaged in response to 500 tone bursts. The recorded signals were filtered by a band-pass filter from 300 Hz to 3 kHz. Pretreatment ABR recordings of adult FVB mice (aged 6 weeks) were acquired 1 week before all treatments, and posttreatment ABR measurements were recorded 21 days after cisplatin treatment or 14 days after noise exposure. ABR threshold was determined by the presence of any of three or more of the five waveform peaks. […] All thresholds and shifts were determined independently by two experimenters for each mouse. Individual ABR wave 1 amplitudes were measured as the difference between the positive peak and the following negative trough.
# Cochleae from adult mice were prepared and examined as described previously ([85], [86]). All images were acquired with a confocal microscope (LSM 700 or 710, Zeiss). Samples were stained with phalloidin (A12379 or A12380, Invitrogen) or with antibodies for other markers. The following primary antibodies were used: anti–myosin VI (1:400; 25-6791; Proteus Bioscience), anti–myosin VIIa ([…];138-1-s, Developmental Studies Hybridoma Bank), anti-Tuj1 (1:250; 801201, BioLegend), anti-pERK (1:400; 9101S, Cell Signaling Technology), or anti-Ctbp2 (1:500; 612044, BD Transduction). Anti-rabbit Alexa Fluor 488 (1:400; A11034) and anti-mouse Alexa Fluor 647 (1:400; A31571) secondary antibodies were purchased from Invitrogen. ProLong gold antifade reagent with 4′,6-diamidino-2-phenylindole (P36941, Invitrogen) was used to counterstain nuclei.
# [2] = set-up: method as in PMID 29039591, PMID 31818130; settings: cited from earlier work
# P42 FVB mice [3] = experiment: Noise-induced hearing loss in adult mice (ABR, DPOAE, Ctbp2 puncta, pERK); type: in vivo, mouse
# Experimental: Noise injury cannot always be predicted, and pretreatment is often not an option.
# as §1, §2
# Mice were placed in individual cages in a custom-made acrylic chamber. The sound stimulus was produced by System RZ6 (TDT) equipment and amplified using a 75-A power amplifier (Crown). Sound was delivered to the acrylic chamber via a speaker horn (JBL). The SPL was calibrated with a 1/4-inch free-field microphone (PCB). Before experimental noise exposure, four quadrants of the cage inside the chamber were sampled with the 1/4-inch microphone to ensure that the SPL varied by <0.5 dB across the measured positions. Adult mice were then exposed to 2 hours of octave band noise (8 to 16 kHz) at 100 dB.
# Organs of Corti were costained with anti-Ctbp2 and anti–myosin VI antibodies. Confocal imaging was performed using a Zeiss 700 scanning confocal microscope with a 63× objective. Visualization and projections were performed using ZEN 2009 or ZEN 2012 software (Zeiss). Ctbp2 puncta were visualized and counted on the reconstructed three-dimensional images by using the ZEN 2009 or ZEN 2012 three-dimensional construct function as previously reported ([54]). […] Images were acquired around 16-kHz cochlear regions, and each image included 12 to 18 IHCs that were quantified as total number of Ctbp2 puncta divided by total number of IHCs per image.
# [4] = system: Tg(brn3c:GFP) zebrafish larvae neuromast HCs; experiment: Zebrafish lateral line neuromast hair cell loss after cisplatin; type: in vivo
# Source text: Lateral line neuromasts of zebrafish are a well-established model for the study of drug protection from cisplatin or aminoglycoside toxicity because their HCs are considered homologous to mammalian HCs and readily accessible to compounds in vivo ([47]–[49]). As in our previous studies, MI1 (medial neuromast 1) and O1-2 (otic line) neuromasts were examined in Tg(brn3c:GFP) zebrafish larvae 5 days after fertilization ([50], [51]). […] Green fluorescent protein (GFP) (brn3c) and otoferlin staining were used to identify neuromast HCs. In fig.
# Zebrafish (D. rerio) experimental larvae of either sex were obtained by pair mating of adult fish maintained at Boys Town National Research Hospital. We used zebrafish line Tg(brn3c:GFP) that expresses a membrane-bound GFP in HCs. Fish were maintained at 28.5°C in E3 media [5 mM NaCl, 0.17 mM KCl, 0.33 mM CaCl2, and 0.33 MgSO4 (pH 7.2)] at a density of 50 embryos/larvae per […] petri dish. Experimental animals were used at 5 days post-fertilization and cryo-anesthetized after treatment and before fixation. Average HC counts in our studies were obtained from the following three neuromasts: MI1 (medial neuromast 1) and O1 and O2 (otic line).
# [5] = system: BRAF, MEK, and ERK phosphorylation; experiment: Western blot of cisplatin-induced MAPK phosphorylation in HEI-OC1 cells; settings: 14, 35, or 75 μM, 1 hour pretreatment, 50 μM cisplatin 1 hour
# Experimental: Whole lysates of HEI-OC1 cells were prepared in lysis buffer (9803, Cell Signaling Technology) after adding protease (cOmplete ULTRA Tablets 05892791001) and phosphatase (PhosSTOP 04906845001) inhibitors (Roche). The lysates were centrifuged for 10 min at 15,000g at 4°C, and the supernatants were collected. Protein concentrations in protein solutions were determined with the BCA protein assay kit (23235, Thermo Fisher Scientific). Forty micrograms of total cell lysate was loaded on 4 to 20% SDS–polyacrylamide gel electrophoresis gels. The following antibodies were used for immunoblot analysis: anti-BRAF (14814S), anti-pBRAF (Ser^445, 2696S), anti-ERK1/2 (4695), anti-pERK1/2 (Thr^202/Tyr^204, 9101S), anti-MEK1/2 (9122S), and anti-pMEK1/2 (Ser^217/221, 41G9S) were obtained from Cell Signaling Technologies and anti–β-actin (C4; SC-47778) was purchased from Santa Cruz. The antibodies were used at dilutions ranging from 1:500 to 1:1000. Anti-mouse (P0447) and anti-rabbit (P0448) secondary antibodies were purchased from Dako Laboratories and diluted 1:5000. National Institutes of Health (NIH) ImageJ software was used to quantify the band intensities and recorded as a ratio to loading control β-actin. Each Western blot series (n) was carried out using cell lysates from separate experiments. Blot intensities were quantified using NIH ImageJ software.
smiles,measurement,setting,value
CC(C)(C)c1nc(-c2cccc(NS(=O)(=O)c3c(F)cccc3F)c2F)c(-c2ccnc(N)n2)s1 [dabrafenib],ERK phosphorylation in cochlear SCs after cisplatin,"P42 FVB mice [1]; 100 mg/kg 45 min pretreatment, 1 hour after cisplatin 30 mg/kg i.p.",attenuated
same,protection of ABR threshold at 16 kHz,"P42 FVB mice [1]; 100 mg/kg oral, cisplatin 30 mg/kg i.p.",nearly full protection
same,"loss of OHCs in cochlea, combined with cisplatin","P42 FVB mice [1]; 100 mg/kg oral, cisplatin 30 mg/kg, 8-, 16-, 32-kHz regions",limited
same,"OHC loss, drug alone","P42 FVB mice [1]; 100 mg/kg oral, no cisplatin",No OHC loss
same,whole-body toxicity or ototoxic effects,"P42 FVB mice [1]; 3-day dabrafenib-alone treatment, weight, appearance/behavior, ototoxicity up to 21 days",did not observe whole-body toxicity or ototoxic effects
same,survival rate of mice,"P42 FVB mice [1]; cisplatin 30 mg/kg i.p., alone or combined with dabrafenib",50%
same,crossing of the blood-labyrinth barrier,P42 FVB mice [1]; inferred from effects in mice via oral delivery,crosses the blood-labyrinth barrier
same,ABR wave 1 amplitude at 16 kHz versus cisplatin alone,P42 FVB mice [1]; significant at 90-dB SPL,higher
same,blood-brain barrier penetration,[2],penetrates the blood-brain barrier
same,loss of Ctbp2 puncta per IHC at 16-kHz region,P42 FVB mice [3]; 100 mg/kg pretreatment,partially rescued
same,effect on noise-reduced 16-kHz ABR wave 1 amplitude,"P42 FVB mice [3]; 100 mg/kg pretreatment, 80- and 90-dB SPL",significantly mitigated
same,noise-induced ERK phosphorylation in SCs,"P42 FVB mice [3]; pretreatment, 3 hours after noise",reduced ERK phosphorylation
same,protection from cisplatin-induced neuromast HC loss,"[4]; 1 hour pretreatment, 6 hours 400 μM cisplatin, dabrafenib 100 nM",significant protection
same,toxic effect of compound alone on neuromast HCs,[4]; all concentrations tested,no toxic effect
same,"effect on cisplatin-induced BRAF, MEK, and ERK phosphorylation",[5],mitigated these changes in a dose-dependent manner
